Laboratory results reported in article PMC6556873, “Rapid Covalent-Probe Discovery by Electrophile-Fragment Screening” (Journal of the American Chemical Society, 2019).
Like-named read-outs stand apart in the source and are kept apart here.

Experiments:
in vitro [1] = assay: in vitro; set-up: species or system CCD841, HEK293; details: human, hb2 cells, read-out: HB-2 Cells Viability (%)
in vitro [2] = assay: in vitro; set-up: species or system HB2, HEK293; details: human, ccd841 cells
BSA = biological target: T1, BSA (Bos taurus, UniProt P02769); set-up: Intact protein LC/MS covalent labelling, fragments in pools of five, 200 uM each, 4 °C; details: 24 h, 4 °C, pool of five; 200 µM; covalent
T1 construct: gene ALB

NUDT7 = biological target: T2, NUDT7 (Homo sapiens, UniProt P0C024); set-up: Intact protein LC/MS covalent labelling, fragments in pools of five, 200 uM each, 4 °C; details: 24 h, 4 °C, pool of five; 200 µM; covalent
T2 construct: residues 14-235, E. coli, pNIC28-Bsa4, N-terminal His6 tag removed by TEV, construct 26672 Da

PCAF = biological target: T3, PCAF (Homo sapiens, UniProt Q92831); set-up: Intact protein LC/MS covalent labelling, fragments in pools of five, 200 uM each, 4 °C; details: 24 h, 4 °C, pool of five; 200 µM; covalent
T3 construct: gene KAT2B

OTUB2 (OTUB2A) = biological target: T4, OTUB2 (OTUB2A) (Homo sapiens, UniProt Q96DC9); set-up: Intact protein LC/MS covalent labelling, fragments in pools of five, 200 uM each, 4 °C; details: 24 h, 4 °C, pool of five; 200 µM; covalent
T4 construct: full length residues 1-234, E. coli BL21(DE3)-R3, His tag removed by TEV, construct 27312 Da
T4 sequence (Q96DC9 1-234): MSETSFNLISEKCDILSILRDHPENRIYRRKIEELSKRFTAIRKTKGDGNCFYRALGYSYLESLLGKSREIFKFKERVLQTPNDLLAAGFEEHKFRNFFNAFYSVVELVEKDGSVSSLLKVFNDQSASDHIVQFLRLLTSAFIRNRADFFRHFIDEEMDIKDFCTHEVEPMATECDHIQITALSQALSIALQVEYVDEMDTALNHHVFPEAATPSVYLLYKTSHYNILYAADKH

in vitro [3] = assay: in vitro; set-up: species or system HB2, CCD841; details: human, hek293 cells

T1 sequence (P02769 whole entry, the tested form may be a part): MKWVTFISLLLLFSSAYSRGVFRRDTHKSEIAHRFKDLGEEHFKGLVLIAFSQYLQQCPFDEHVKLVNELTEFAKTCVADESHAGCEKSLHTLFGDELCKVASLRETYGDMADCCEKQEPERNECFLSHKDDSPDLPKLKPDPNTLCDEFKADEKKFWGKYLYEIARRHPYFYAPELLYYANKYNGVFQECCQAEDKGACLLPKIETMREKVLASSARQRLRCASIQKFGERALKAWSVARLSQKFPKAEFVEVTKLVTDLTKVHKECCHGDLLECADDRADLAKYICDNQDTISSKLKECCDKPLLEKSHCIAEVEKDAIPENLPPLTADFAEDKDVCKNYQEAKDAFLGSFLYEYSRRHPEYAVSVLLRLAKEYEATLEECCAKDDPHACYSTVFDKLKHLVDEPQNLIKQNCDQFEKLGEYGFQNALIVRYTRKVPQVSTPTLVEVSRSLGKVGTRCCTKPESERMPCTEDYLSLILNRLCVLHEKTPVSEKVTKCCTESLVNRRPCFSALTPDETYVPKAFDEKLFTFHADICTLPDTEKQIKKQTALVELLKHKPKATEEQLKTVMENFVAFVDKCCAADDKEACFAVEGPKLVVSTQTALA
T3 sequence (Q92831 whole entry, the tested form may be a part): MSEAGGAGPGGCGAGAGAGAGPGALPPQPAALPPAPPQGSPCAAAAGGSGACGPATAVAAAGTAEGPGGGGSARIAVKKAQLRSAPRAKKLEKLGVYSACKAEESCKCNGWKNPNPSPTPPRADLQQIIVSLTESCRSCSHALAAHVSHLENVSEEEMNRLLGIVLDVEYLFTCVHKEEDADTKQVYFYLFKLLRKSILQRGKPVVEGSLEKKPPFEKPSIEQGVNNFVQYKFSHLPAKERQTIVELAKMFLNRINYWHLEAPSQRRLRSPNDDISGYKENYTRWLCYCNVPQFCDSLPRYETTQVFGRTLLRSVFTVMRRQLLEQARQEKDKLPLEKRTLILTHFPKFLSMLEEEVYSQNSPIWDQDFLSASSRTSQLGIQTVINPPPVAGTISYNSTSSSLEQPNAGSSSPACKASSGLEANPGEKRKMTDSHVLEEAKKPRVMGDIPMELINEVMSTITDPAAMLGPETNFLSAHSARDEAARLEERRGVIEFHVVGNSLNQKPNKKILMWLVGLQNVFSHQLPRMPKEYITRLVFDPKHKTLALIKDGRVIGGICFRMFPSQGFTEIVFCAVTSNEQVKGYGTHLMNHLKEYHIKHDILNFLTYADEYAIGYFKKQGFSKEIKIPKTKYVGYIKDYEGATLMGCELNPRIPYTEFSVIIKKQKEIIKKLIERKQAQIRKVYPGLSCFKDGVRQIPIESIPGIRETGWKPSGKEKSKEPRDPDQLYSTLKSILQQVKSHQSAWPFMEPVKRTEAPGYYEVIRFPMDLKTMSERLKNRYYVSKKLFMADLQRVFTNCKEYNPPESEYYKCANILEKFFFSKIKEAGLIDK
T2 sequence (P0C024 14-235): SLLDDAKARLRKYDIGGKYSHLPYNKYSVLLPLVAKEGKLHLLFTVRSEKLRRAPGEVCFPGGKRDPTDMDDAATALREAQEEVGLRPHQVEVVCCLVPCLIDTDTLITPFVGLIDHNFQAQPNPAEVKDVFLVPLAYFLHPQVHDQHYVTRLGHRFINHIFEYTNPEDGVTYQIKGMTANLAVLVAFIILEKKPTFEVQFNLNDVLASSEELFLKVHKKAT

Row | BSA (BSA) | NUDT7 (NUDT7) | PCAF (PCAF) | OTUB2 (OTUB2 (OTUB2A)) | Compound | viability at 48 h, 10 µM (in vitro [1]) [%] | viability at 48 h, 10 µM (in vitro [2]) [%] | viability at 48 h, 10 µM (in vitro [3]) [%]
1 | 0 | 0 | 0 | 0 | CC12CCC(CC1=NNC(=O)CCl)C2(C)C (stereo not drawn) [PCM-0102498] | 25.9 | 14.6 | 2.2
2 | 0 | 0.1 | 0 | 0 | C=CC(=O)Nc1ccc2c(c1)NC(=O)CO2 [PCM-0102499] | 104 | 108 | 71.7
3 | 0 | 0 | 0 | 0.35 | Cc1cc(NC(=O)CCl)no1 [PCM-0102500] | 66.8 | 73.3 | 60.3
4 | 0 | 0.09 | 0 | 0.09 | Cc1nn(-c2ccccc2)c(C)c1NC(=O)CCl [PCM-0102501] | 83.2 | 68.3 | 62.2
5 | 0 | 0 | 0 | 0 | CC(C)CNC(=O)NC(=O)CCl [PCM-0102502] | 78 | 80.7 | 52.7
6 | 0 | 0 | 0 | 0 | C=CC(=O)N1CCn2c(cc3ccc(Cl)cc32)C1 [PCM-0102503] | 98.2 | 102 | 74.4
7 | 0 | 0 | 0 | 0 | CC(C)NC(=O)NC(=O)CCl [PCM-0102504] | 92 | 81.5 | 66.9
8 | 0 | 0.59 | 0 | 0.07 | O=C(CCl)Nc1ccc(Br)cc1Cl [PCM-0102505] | 41.7 | 74.6 | 31.6
9 | 0.1 | 0 | 0 | 0 | O=C(CCl)Nc1ccccc1I [PCM-0102509] | 95.5 | 91.1 | 99.4
10 | 0 | 0 | 0 | 0.52 | O=C(CCl)NNC(=O)c1ccccc1F [PCM-0102510] | 98 | 72.7 | 93.1
11 | 0 | 0 | 0 | 0 | C=CC(=O)N1CCN(c2ccnc(-c3ccccc3)n2)CC1 [PCM-0102515] | 88.8 | 105 | 73
12 | 0 | 0 | 0 | 0 | CC(C)N(CC(F)(F)F)C(=O)CCl [PCM-0102516] | 103 | 109 | 106
13 | 0 | 0 | 0 | 0 | CNC(=O)C1CCCN1C(=O)CCl (stereo not drawn) [PCM-0102518] | 101 | 93.3 | 67.8
14 | 0 | 0 | 0 | 0 | C=CC(=O)N1CCCN(C(=O)C2CCCO2)CC1 (stereo not drawn) [PCM-0102519] | 98.2 | 108 | 95.5
15 | 0 | 0 | 0 | 0 | C=CC(=O)N1CCC2(CC1)NC(=O)C1(CCCCC1)N2 [PCM-0102520] | 101 | 106 | 107
16 | 0 | 0 | 0 | 0 | C=CC(=O)N1CCCC(NS(C)(=O)=O)C1 (stereo not drawn) [PCM-0102522] | 106 | 112 | 106
17 | 0 | 0 | 0 | 0 | C=CC(=O)NCC1CCOC2(CCC2)C1 (stereo not drawn) [PCM-0102523] | 102 | 117 | 90.4
18 | 0 | 0 | 0 | 0 | C=CC(=O)N1CCC(C(=O)c2ccc3c(c2)NC(=O)C(C)O3)CC1 (stereo not drawn) [PCM-0102524] | 103 | 99.7 | 80.6
19 | 0 | 0 | 0 | 0 | C=CC(=O)N1CCC(c2nc(C(F)(F)F)cs2)CC1 [PCM-0102525] | 95.8 | 128 | 96.6
20 | 0 | 0 | 0 | 0 | C=CC(=O)NC(C#N)C(C)C (stereo not drawn) [PCM-0102529] | 102 | 98.9 | 89.7
21 | 0 | 0 | 0 | 0 | C=CC(=O)Nc1cc(N)ccc1F [PCM-0102533] | 108 | 113 | 75.6
22 | 0.2 | 0.06 | 0 | 0 | CC(=O)N1CCN(C(=O)CCl)CC1 [PCM-0102535] | 85.7 | 82.8 | 37.6
23 | 0 | 0 | 0 | 0.14 | CC(C)(C)c1cc(NC(=O)CCl)n(-c2ccccc2)n1 [PCM-0102536] | 33.5 | 65.2 | 10.6
24 | 0 | 0.12 | 0 | 0 | C=CC(=O)Nc1ccc(Cl)cc1 [PCM-0102537] | 95.5 | 89.3 | 81.5
25 | 0 | 0.33 | 0 | 0.16 | Cc1ccc(N(C(=O)CCl)C2C=CS(=O)(=O)C2)cc1 (stereo not drawn) [PCM-0102539] | 23.3 | 31.5 | 4.7
26 | 0 | 0 | 0 | 0 | CC(C)(C)NC(=O)NC(=O)CCl [PCM-0102540] | 111 | 140 | 113
27 | 0 | 0.14 | 0 | 0 | COC(=O)c1c(NC(=O)CCl)sc2c1CCC2 [PCM-0102542] | 18.1 | 70.6 | 18.6
